How the values were obtained:
[1] = system: rats; experiment: Anaesthetic assessment by continuous intravenous infusion in rats (loss and return of righting reflex); assay type: in vivo; settings: iv; rat, i.v. infusion starting at 20 mg/kg/min; measure of sedative potency; mean (SEM); read-out: Sedation LORR: minimal dose for loss of righting reflex (SEM)
Procedure: (§1) The compounds were evaluated for their ability to anaesthetise rats when administered by continuous intravenous infusion, as reported previously. Compounds were administered to initially deliver 20 mg/kg/min (weight-adjusted flow) to achieve a pedal withdrawal reflex score (PWR = 1), then titrated to maintain loss of righting reflex (LORR) for 10 min. Three rats were used in each study, with each group of rats also acting as their own ketamine control. Data were collected on the total dose of drug (mg/kg), to achieve LORR and a PWR = 1, and on the time (in seconds, from cessation of the infusion) to recovery of righting reflex (RORR) (recovery from the hypnotic anaesthesia effect). Given the complexity of the experimental protocol, the total dose for LORR (Table 1) is very consistent, with ranges of only 1.5-fold within each group. The consistency of the post-sedation recovery times are expectedly lower, with ranges of about 2.5-fold. During recovery the rats were monitored for multiple signs of behavioural dysfunction (see biology section for details) and the sum of these scores (from 0 to 4, with 0 being no effect and 4 being severe dysfunction) is given in Table 2. IC50 values for inhibition of the NMDA receptor were conducted by Eurofins PanLabs, Taiwan.
(§2) All animal experiments were conducted at the Ruakura Research Centre, Hamilton, New Zealand, using experimental protocols reviewed and approved by the Ruakura Animal Ethics Committee (ethics ref 12604/13786). Adult female Sprague-Dawley rats of approximately 250–350 g were evaluated in both anaesthetic and analgaesic study protocols. All study agents were delivered by tail vein cannula connected via minibore extension tubing to mechanised infusion pump.
(§3) Following acquisition of baseline physiologic parameters (heart rate, respiratory rate, PWR, and righting reflex (RR)) ketamine or an experimental compound at 10mg/mL were commenced at a rate (weight-adjusted) to deliver 20 mg/kg/min. Dose to loss of righting reflex (LORR see below), and subsequent pedal withdrawal score of 1 (PWR see below) were recorded. Following attaining a PWR of 1, infusion rate was reduced to 6.7 mg/kg/min, then titrated in an up-and-down fashion as required to maintain both dorsal recumbency, and a PWR = 1, to 10 min before cessation. Each study used three rats, with each group of rats also acting as their own ketamine control. Prior odds/evens randomisation determined the order of study drug administration was determined by with a recovery interval of at least three hours afforded between experiments. Records of PWR and RR were made at one-minute intervals throughout, from cessation of infusion to return of righting reflex (RORR), and from cessation of infusion to the animals displaying independent locomotion (walk).
Loss of Righting Reflex (LORR): This is primarily used to assess anaesthetic hypnotic effect. Righting reflex is judged absent when the rat fails to right from a position of dorsal recumbency to a position of sternal recumbency on three attempts performed in rapid succession. Dose to LORR is termed effective potency.

[2] = system: rats; experiment: Behavioural dysfunction scoring during recovery from infusion; assay type: in vivo; settings: rat, during wake-up, sum score 0 (no effect) to 4 (severe dysfunction), mean (SEM)
Procedure: as §1
Behavioural dysfunction scoring: This was undertaken according to the following table. Observations were made over a one minute interval every five minutes from cessation of infusion until return of normal behaviours (total score = 0). A score of 1 was accorded for any positive behavioural aberration for each of four categories (maximal score 4) during wake-up.
Duration of any behavioural aberration was recorded from RORR as follows: score 0 = nil; score1 = 0–120 s; score 2 = 121–300 s; score 3 = 301–600 s; score 4 = 600+ s.

[3] = target: N-methyl-D-aspartate receptor; experiment: Inhibition of the NMDA receptor (Eurofins Panlabs Taiwan); assay type: binding; settings: conducted by Eurofins Panlabs Taiwan
Procedure: as §1

[4] = system: rats; experiment: Pedal withdrawal reflex (PWR) scoring during intravenous infusion (analgaesic potency); assay type: in vivo; settings: rat, i.v. infusion, dose to PWR = 1, mean (SEM), read-out: Analgaesia potency: minimal dose for loss of pedal withdrawal reflex (SEM)
Procedure: as §1, §2, §3
Pedal Withdrawal Reflex (PWR) scoring: Nociceptive testing in animals was conducted via 1 s application of constant pressure (firm digital pressure) over the forepaw of the animal. Pedal withdrawal reflex testing is primarily used to assess analgaesic effect, and responses are graded accordingly: 0, absent; 1, flicker; 2, moderate withdrawal; 3, fast withdrawal; 4, Fast withdrawal with cry/preceding apnoea (modified from).

[5] = Drug half-life in rats; settings: rat, in vivo
Description: Table 1 Biological and physiochemical data for esters of ring-substituted ketamine analogues. | column: Rat / t½ ^e (min)

[6] = system: rats; experiment: Tail flick analgaesic assessment (composite tail flick latency, cTFL); assay type: in vivo; settings: rat, 20 mg/kg i.v. infused over 10 min; AUC of %MPE-time curve 0-60 min; measure of analgaesic magnitude/duration
Procedure: Analgaesic assessment protocol: Animal preparation was in accord with the anaesthetic assessment protocol above. Three rats were used in each study. Following venous cannulation, animals underwent infusion of ketamine or experimental compound at 20 mg/kg over a ten minute interval. A tail flick analgaesia meter (Colombus Instruments, Colombus, Ohio) was then used to determine thermal pain sensitivity. Radiant heat was applied using a shutter-controlled lamp as a heat source focused on a spot located 6–8 cm from the tip of the tail. The intensity of the beam was set at a level producing basal latency times between 2 and 4 s. To prevent thermal tissue injury the cut off time as set at 10 s. A digital response time indicator with a resolution of 0.1s measured the time from initiation of stimulus until tail withdrawal (the flick; TFL).
The TFL response following infusion of control and study drugs was calculated as a percentage of the maximum possible effect (MPE) such that:%MPE = [TFL (post-drug) – TFL (pre-drug)/10 s – TFL (pre-drug)] × 100%(1)
TFL latency was recorded at 5 min intervals from cessation of study drug infusion (time zero) to 60 min. Individual %MPE-time curves were constructed for each animal, and the area under the curve (AUC) adopted as a composite measure of induced analgaesia (cTFL).

SMILES	minimal effective dose [1] [mg/kg]	Behavioural dysfunction Score (SEM): severity on recovery [2]	IC50 [3] [µM]	minimal effective dose [4] [mg/kg]	half-life [5] [min]	Analgaesia cTFL (composite tail flick latency) [6] [s]	Behavioural dysfunction Score (SEM): severity on recovery ([2]; listed as ketamine)
CC(C)OC(=O)CCNC1(c2ccccc2Cl)CCCCC1=O (stereo not shown) [5a]	33	2 (1)	134	37	3.4	1384	
COC(=O)CCCCNC1(c2ccccc2Cl)CCCCC1=O (stereo not shown) [5b]	34	2 (0)	3.2	44	0.7	374	
COC(=O)CCCCNC1(c2ccc(Cl)cc2)CCCCC1=O (stereo not shown) [15b, Methyl 5-((1-(4-chlorophenyl)-2-oxocyclohexyl)amino)pentanoate]	89	3 (1)	101	100		576	
Cc1ccc(C2(NCCC(=O)OC(C)C)CCCCC2=O)cc1 (stereo not shown) [16a]	47	1 (0)	161	52		650	
COC(=O)CCCCNC1(c2ccc(C)cc2)CCCCC1=O (stereo not shown) [16b]	50	1 (0)	23	55		0	
COc1ccc(C2(NCCC(=O)OC(C)C)CCCCC2=O)cc1 (stereo not shown) [17a]	> 200	0 (0)	396	> 200		167	
CC(C)OC(=O)CCNC1(c2ccc(C(F)(F)F)cc2)CCCCC1=O (stereo not shown) [18a]	> 200	0 (0)	438	> 200		412	
COC(=O)CCCCNC1(c2ccc(C(F)(F)F)cc2)CCCCC1=O (stereo not shown) [18b]	> 200	0 (0)	470	> 200		37	
CC(C)OC(=O)CCNC1(c2ccc(OC(F)(F)F)cc2)CCCCC1=O (stereo not shown) [19a]	> 200	0 (0)	314	> 200		166	
COC(=O)CCCCNC1(c2ccc(OC(F)(F)F)cc2)CCCCC1=O (stereo not shown) [19b]	> 200	0 (0)	597	> 200		194	
CC(C)OC(=O)CCNC1(c2cccs2)CCCCC1=O (stereo not shown) [20a]	> 200	1 (1)	157	> 200		362	
CNC1(c2ccccc2Cl)CCCCC1=O (stereo not shown) [compound 1, ketamine]	21	3 (0)	0.7	28	44.4	671	3
